Assay [1] relates to A549. Briefly: Induction of apoptosis in human A549 cells incubated for 72 hrs by Annexin-V staining based flow cytometry analysis relative to control. The class given is functional.
Assay [2] relates to MCF7. Put plainly: Anti-proliferative activity against human MCF7 cells assessed as growth inhibition incubated for 72 hrs by alamar blue staining based fluorometric assay. The class given is functional.
In assay [3] the test system is OVCAR-3. Briefly: Anti-proliferative activity against human OVCAR-3 cells assessed as growth inhibition incubated for 72 hrs by alamar blue staining based fluorometric assay. The class given is functional.
In assay [4] the test system is RKO. Briefly: Anti-proliferative activity against human RKO cells assessed as growth inhibition incubated for 72 hrs by alamar blue staining based fluorometric assay. The class given is functional.
A further assay relates to U-87 MG. Put plainly: Anti-proliferative activity against human U87 cells assessed as growth inhibition incubated for 72 hrs by alamar blue staining based fluorometric assay. The class given is functional, U-87MG ATCC.
The test system of another assay is HeLa. Briefly: Anti-proliferative activity against human HeLa cells assessed as growth inhibition incubated for 72 hrs by alamar blue staining based fluorometric assay. It counts as functional.
Assay [5] concerns HCT-116. Put plainly: Anti-proliferative activity against human HCT-116 cells assessed as growth inhibition incubated for 72 hrs by alamar blue staining based fluorometric assay. It counts as functional.
Assay [6] deals with A549. Briefly: Anti-proliferative activity against human A549 cells assessed as growth inhibition incubated for 72 hrs by alamar blue staining based fluorometric assay. It counts as functional.
Assay [7] has as its system HCT-116. Briefly: Induction of apoptosis in human HCT-116 cells incubated for 72 hrs by Annexin-V staining based flow cytometry analysis relative to control. The class given is functional.
The subject of assay [8] is RKO. Briefly: Induction of apoptosis in human RKO cells incubated for 72 hrs by Annexin-V staining based flow cytometry analysis relative to control. The class given is functional.
Assay [9] concerns MCF7. Put plainly: Induction of apoptosis in human MCF7 cells incubated for 72 hrs by Annexin-V staining based flow cytometry analysis relative to control. The class given is functional.
Assay [10] deals with OVCAR-3. Briefly: Induction of apoptosis in human OVCAR-3 cells incubated for 72 hrs by Annexin-V staining based flow cytometry analysis relative to control. The class given is functional.
The subject of assay [11] is Jurkat. Briefly: Anti-proliferative activity against human Jurkat cells assessed as growth inhibition incubated for 72 hrs by alamar blue staining based fluorometric assay. The class given is functional.
For the next assay, the system named is HuT78. Briefly: Anti-proliferative activity against human HuT78 cells assessed as growth inhibition incubated for 72 hrs by alamar blue staining based fluorometric assay. The class given is functional.
The next assay relates to CCRF-HSB-2. Put plainly: Anti-proliferative activity against human CCRF-HSB-2 cells assessed as growth inhibition incubated for 72 hrs by alamar blue staining based fluorometric assay. It counts as functional.
Another assay deals with MOLT-4. Put plainly: Anti-proliferative activity against human MOLT-4 cells assessed as growth inhibition incubated for 72 hrs by alamar blue staining based fluorometric assay. The class given is functional.
The next assay concerns SUD4. Briefly: Anti-proliferative activity against human SU-DHL-4 cells assessed as growth inhibition incubated for 72 hrs by alamar blue staining based fluorometric assay. The class given is functional.
The subject of another assay is Ramos. Briefly: Anti-proliferative activity against human Ramos cells assessed as growth inhibition incubated for 72 hrs by alamar blue staining based fluorometric assay. The class given is functional.
In a further assay the test system is Raji. Briefly: Anti-proliferative activity against human Raji cells assessed as growth inhibition incubated for 72 hrs by alamar blue staining based fluorometric assay. The class given is functional.
For a further assay, the system named is DB. Briefly: Anti-proliferative activity against human DB cells assessed as growth inhibition incubated for 72 hrs by alamar blue staining based fluorometric assay. The class given is functional.
For the next assay, the system named is K562. Put plainly: Anti-proliferative activity against human K562 cells assessed as growth inhibition incubated for 72 hrs by alamar blue staining based fluorometric assay. The class given is functional.
The next assay has as its system THP-1. Put plainly: Anti-proliferative activity against human THP-1 cells assessed as growth inhibition incubated for 72 hrs by alamar blue staining based fluorometric assay. It counts as functional.
The next assay relates to RPMI-8226. Put plainly: Anti-proliferative activity against human RPMI-8226 cells assessed as growth inhibition incubated for 72 hrs by alamar blue staining based fluorometric assay. The class given is functional.
For assay [12], the system named is Jurkat. Briefly: Cytotoxicity in tubulin in human Jurkat cells assessed as tubulin acetylation at 0.2 uM incubated for 24 hrs by Western blotting analysis. It counts as functional, cell-based.
The subject of assay [13] is Jurkat. Briefly: Cytotoxicity in human Jurkat cells assessed as histone acetylation at 0.2 uM incubated for 24 hrs by Western blotting analysis. It counts as functional, cell-based.
For assay [14], the system named is Jurkat. Briefly: Induction of apoptosis in human Jurkat cells assessed as decrease in FL-Bid at 5 uM incubated for 24 hrs by Western blotting analysis.
In assay [15] the test system is Jurkat. Briefly: Induction of apoptosis in human Jurkat cells assessed as intracellular calcium level at 0.4 uM in presence of Iodo-1 by spectrofluorimetric analysis. The class given is functional, cell-based.
Assay [16] relates to Jurkat. Put plainly: Induction of apoptosis in human Jurkat cells assessed as intracellular calcium level at 0.8 uM in presence of Iodo-1 by spectrofluorimetric analysis. It counts as functional, cell-based.
Assay [17] deals with J.gamma1. Put plainly: Induction of apoptosis in human J.gamma1 cells assessed as increased intracellular calcium level at 1 uM in presence of Iodo-1 and Ionomycin by spectrofluorimetric analysis. The class given is functional, cell-based.
The subject of assay [18] is J.gamma1. Put plainly: Induction of apoptosis in human J.gamma1 cells assessed as increased intracellular calcium level at 1 uM in presence of Iodo-1 by spectrofluorimetric analysis. The class given is functional, cell-based.
Assay [19] has as its system Jurkat. Put plainly: Induction of apoptosis in human Jurkat cells assessed as increase in intracellular calcium level at 0.25 to 1 uM in presence of Iodo-1 and Ionomycin by spectrofluorimetric analysis. The class given is functional, cell-based. As to conditions: dose 0.25-1 µM.
The test system of assay [20] is Jurkat. Briefly: Induction of apoptosis in human Jurkat cells assessed as increase in intracellular calcium level in presence of Iodo-1 by spectrofluorimetric analysis. Particulars: dose 0.25-1 µM. It counts as functional, cell-based.
The subject of assay [21] is J.gamma1. Put plainly: Induction of apoptosis in human J.gamma1 cells at 0.2 uM incubated for 24 hrs by Annexin-V staining based flow cytometry analysis relative to control. The class given is functional.
For assay [22], the system named is Jurkat. Put plainly: Induction of apoptosis in human Jurkat cells assessed as increased intracellular calcium level in presence of Iodo-1 and U73122 by spectrofluorimetric analysis. The class given is functional, cell-based.
Assay [23] relates to J.gamma1. Briefly: Induction of apoptosis in human J.gamma1 cells assessed as increased intracellular calcium level in presence of Iodo-1 and U73122 by spectrofluorimetric analysis. It counts as functional, cell-based.

Activity calls are given as the source filed them. The calls are words filed in the database; no cut-off is given here.

As to `CN(C)Cc1c(C(=O)NCCOc2ccc(C(=O)NO)cc2)oc2ccccc12.Cl` [ABEXINOSTAT HYDROCHLORIDE], the Activity in the assay on A549 [1] turned out to be 47%; with HCT-116 [7] it was 70%; in the assay on RKO [8], 45%; in the assay with MCF7 [9], 37%; in the assay on OVCAR-3 [10] it was 55%. In addition, the GI50 was 150 nM with MCF7 [2]; 160 nM in the assay with OVCAR-3 [3]; 1500 nM in the assay on RKO [4]; 1200 nM in the assay on U-87 MG; 200 nM with HeLa; 200 nM with HCT-116 [5]. Further, the GI50 in the assay with A549 [6] is 180 nM; in the assay with Jurkat [11], 110 nM; in the assay on HuT78, 110 nM; in the assay with CCRF-HSB-2, 100 nM; with MOLT-4 it was 120 nM; in the assay on SUD4, 100 nM. For the same molecule, the GI50 with Ramos amounted to 130 nM; in the assay on Raji it was 120 nM; in the assay on DB, 150 nM; in the assay with K562, 150 nM; in the assay with THP-1, 75 nM; with RPMI-8226, 120 nM. Also, the result in the assay with Jurkat [12], with Jurkat [13] and in the assay on Jurkat [14] was Active.
`COc1ccc2c(c1)CC[C@@H]1[C@@H]2CC[C@]2(C)[C@@H](NCCCCCCN3C(=O)C=CC3=O)CC[C@@H]12`: the outcome in the assay with Jurkat [15] was inactive.
With `COc1ccc2c(c1)CC[C@@H]1[C@@H]2CC[C@]2(C)[C@@H](NCCCCCCN3C(=O)CCC3=O)CC[C@@H]12`, the result in the assay with Jurkat [16] was inactive.
For `C/C=C(/C)C(=O)O[C@H]1C(C)=C2[C@H]([C@@H]1OC(=O)CCCCCCC)[C@@](C)(OC(C)=O)C[C@H](OC(=O)CCC)[C@@]1(O)[C@H]2OC(=O)[C@@]1(C)O` [THAPSIGARGIN], the outcome with J.gamma1 [17], with J.gamma1 [18], in the assay on Jurkat [19], with Jurkat [22] and in the assay with J.gamma1 [23] was Active. Moreover, the values for the Activity entry in the assay with Jurkat [20] and in the assay on J.gamma1 [21] were “Dose-Dependent Effect” and 12%, respectively.

(Values after ChEMBL document CHEMBL5715942, “A novel histone deacetylase 8 (HDAC8)-specific inhibitor PCI-34051 induces apoptosis in T-cell lymphomas” (Leukemia, 2008).)
